From ChEMBL document CHEMBL6078713, “Synthesis and mechanistic studies of 4-aminoquinoline-Isatin molecular hybrids and Schiff's bases as promising antimicrobial agents” (Eur J Med Chem, 2025)
Values after ≈ are worked out from the molar mass of the structure shown. Active and inactive are the calls of the source. No cut-off for these calls is given here.

Key:
Staphylococcus aureus [1] = experiment: Antibacterial activity against Staphylococcus aureus assessed as inhibition of bacterial growth; format: functional
Escherichia coli [2] = experiment: Antibacterial activity against Escherichia coli MTCC 443 assessed as diameter of zone of inhibition at 500 ug/ml by agar disk diffusion method; format: functional; details: read-out: DIZ
Enterococcus faecalis [3] = experiment: Antibacterial activity against Enterococcus faecalis MTCC 439 assessed as diameter of zone of inhibition at 500 ug/ml by agar disk diffusion method; format: functional; details: read-out: DIZ
Bacillus subtilis [4] = experiment: Antibacterial activity against Bacillus subtilis MTCC 736 assessed as diameter of zone of inhibition at 500 ug/ml by agar disk diffusion method; format: functional; details: read-out: DIZ
Staphylococcus aureus [5] = experiment: Antibacterial activity against Staphylococcus aureus MTCC 902 assessed as diameter of zone of inhibition at 500 ug/ml by agar disk diffusion method; format: functional; details: read-out: DIZ
Pseudomonas aeruginosa [6] = experiment: Antibacterial activity against Pseudomonas aeruginosa MTCC 2453 assessed as diameter of zone of inhibition at 500 ug/ml by agar disk diffusion method; format: functional; details: read-out: DIZ
Salmonella typhi [7] = experiment: Antibacterial activity against Salmonella typhi assessed as diameter of zone of inhibition at 500 ug/ml by agar disk diffusion method; format: functional, Salmonella enterica subsp. enterica serovar Typhi; details: Salmonella enterica, read-out: DIZ
Escherichia coli [8] = experiment: Antibacterial activity against Escherichia coli MTCC 443 assessed as inhibition of bacterial growth incubated overnight by serial dilution based spectrophotometer; format: functional
Enterococcus faecalis [9] = experiment: Antibacterial activity against Enterococcus faecalis MTCC 439 assessed as inhibition of bacterial growth incubated overnight by serial dilution based spectrophotometer; format: functional
Bacillus subtilis [10] = experiment: Antibacterial activity against Bacillus subtilis MTCC 736 assessed as inhibition of bacterial growth incubated overnight by serial dilution based spectrophotometer; format: functional
Staphylococcus aureus [11] = experiment: Antibacterial activity against Staphylococcus aureus MTCC 902 assessed as inhibition of bacterial growth incubated overnight by serial dilution based spectrophotometer; format: functional
Pseudomonas aeruginosa [12] = experiment: Antibacterial activity against Pseudomonas aeruginosa MTCC 2453 assessed as inhibition of bacterial growth incubated overnight by serial dilution based spectrophotometer; format: functional
Salmonella typhi [13] = experiment: Antibacterial activity against Salmonella typhi assessed as inhibition of bacterial growth incubated overnight by serial dilution based spectrophotometer; format: functional, Salmonella enterica subsp. enterica serovar Typhi; details: Salmonella enterica
Escherichia coli [14] = experiment: Bactericidal activity against Escherichia coli MTCC 443 assessed as inhibition of bacterial growth incubated overnight; format: functional
Enterococcus faecalis [15] = experiment: Bactericidal activity against Enterococcus faecalis MTCC 439 assessed as inhibition of bacterial growth incubated overnight; format: functional
Bacillus subtilis [16] = experiment: Bactericidal activity against Bacillus subtilis MTCC 736 assessed as inhibition of bacterial growth incubated overnight; format: functional
Staphylococcus aureus [17] = experiment: Bactericidal activity against Staphylococcus aureus MTCC 902 assessed as inhibition of bacterial growth incubated overnight; format: functional
Pseudomonas aeruginosa [18] = experiment: Bactericidal activity against Pseudomonas aeruginosa MTCC 2453 assessed as inhibition of bacterial growth incubated overnight; format: functional
Salmonella typhi [19] = experiment: Bactericidal activity against Salmonella typhi assessed as inhibition of bacterial growth incubated overnight; format: functional, Salmonella enterica subsp. enterica serovar Typhi; details: Salmonella enterica
Escherichia coli [20] = experiment: Ratio of MBC for antibacterial activity against Escherichia coli MTCC 443 to MIC for bactericidal activity against Escherichia coli MTCC 443; format: functional
Bacillus subtilis [21] = experiment: Ratio of MBC for antibacterial activity against Bacillus subtilis MTCC 736 to MIC for bactericidal activity against Bacillus subtilis MTCC 736; format: functional
Pseudomonas aeruginosa [22] = experiment: Ratio of MBC for antibacterial activity against Pseudomonas aeruginosa MTCC 2453 to MIC for bactericidal activity against Pseudomonas aeruginosa MTCC 2453; format: functional
Salmonella typhi [23] = experiment: Ratio of MBC for antibacterial activity against Salmonella typhi to MIC for bactericidal activity against Salmonella typhi; format: functional, Salmonella enterica subsp. enterica serovar Typhi
Enterococcus faecalis [24] = experiment: Antibacterial activity against Enterococcus faecalis MTCC 439 assessed as diameter of zone of inhibition at 0.5 times MIC incubated overnight by disk diffusion method; format: functional
Bacillus subtilis [25] = experiment: Antibacterial activity against Bacillus subtilis MTCC 736 assessed as diameter of zone of inhibition at 0.5 times MIC incubated overnight by disk diffusion method; format: functional
Salmonella typhi [26] = experiment: Antibacterial activity against Salmonella typhi assessed as diameter of zone of inhibition at 0.5 times MIC incubated overnight by disk diffusion method; format: functional, Salmonella enterica subsp. enterica serovar Typhi
Escherichia coli [27] = experiment: Antibacterial activity against Escherichia coli MTCC 443 assessed as diameter of zone of inhibition at MIC incubated overnight by disk diffusion method; format: functional
Enterococcus faecalis [28] = experiment: Antibacterial activity against Enterococcus faecalis MTCC 439 assessed as diameter of zone of inhibition at MIC incubated overnight by disk diffusion method; format: functional
Bacillus subtilis [29] = experiment: Antibacterial activity against Bacillus subtilis MTCC 736 assessed as diameter of zone of inhibition at MIC incubated overnight by disk diffusion method; format: functional
Staphylococcus aureus [30] = experiment: Antibacterial activity against Staphylococcus aureus MTCC 902 assessed as diameter of zone of inhibition at MIC incubated overnight by disk diffusion method; format: functional
Pseudomonas aeruginosa [31] = experiment: Antibacterial activity against Pseudomonas aeruginosa MTCC 2453 assessed as diameter of zone of inhibition at MIC incubated overnight by disk diffusion method; format: functional
Salmonella typhi [32] = experiment: Antibacterial activity against Salmonella typhi assessed as diameter of zone of inhibition at MIC incubated overnight by disk diffusion method; format: functional, Salmonella enterica subsp. enterica serovar Typhi
Escherichia coli [33] = experiment: Antibacterial activity against Escherichia coli MTCC 443 assessed as diameter of zone of inhibition at 2 times MIC incubated overnight by disk diffusion method; format: functional
Enterococcus faecalis [34] = experiment: Antibacterial activity against Enterococcus faecalis MTCC 439 assessed as diameter of zone of inhibition at 2 times MIC incubated overnight by disk diffusion method; format: functional
Bacillus subtilis [35] = experiment: Antibacterial activity against Bacillus subtilis MTCC 736 assessed as diameter of zone of inhibition at 2 times MIC incubated overnight by disk diffusion method; format: functional
Staphylococcus aureus [36] = experiment: Antibacterial activity against Staphylococcus aureus MTCC 902 assessed as diameter of zone of inhibition at 2 times MIC incubated overnight by disk diffusion method; format: functional
Pseudomonas aeruginosa [37] = experiment: Antibacterial activity against Pseudomonas aeruginosa MTCC 2453 assessed as diameter of zone of inhibition at 2 times MIC incubated overnight by disk diffusion method; format: functional
Salmonella typhi [38] = experiment: Antibacterial activity against Salmonella typhi assessed as diameter of zone of inhibition at 2 times MIC incubated overnight by disk diffusion method; format: functional, Salmonella enterica subsp. enterica serovar Typhi
Escherichia coli [39] = experiment: Synergistic antibacterial activity against Escherichia coli MTCC 443 assessed as inhibition of bacterial growth incubated overnight in presence of ciprofloxacin by serial dilution based spectrophotometer; format: functional
Enterococcus faecalis [40] = experiment: Synergistic antibacterial activity against Enterococcus faecalis MTCC 439 assessed as inhibition of bacterial growth incubated overnight in presence of ciprofloxacin by serial dilution based spectrophotometer; format: functional
Bacillus subtilis [41] = experiment: Synergistic antibacterial activity against Bacillus subtilis MTCC 736 assessed as inhibition of bacterial growth incubated overnight in presence of ciprofloxacin by serial dilution based spectrophotometer; format: functional
Staphylococcus aureus [42] = experiment: Synergistic antibacterial activity against Staphylococcus aureus MTCC 902 assessed as inhibition of bacterial growth incubated overnight in presence of ciprofloxacin by serial dilution based spectrophotometer; format: functional
Pseudomonas aeruginosa [43] = experiment: Synergistic antibacterial activity against Pseudomonas aeruginosa MTCC 2453 assessed as inhibition of bacterial growth incubated overnight in presence of ciprofloxacin by serial dilution based spectrophotometer; format: functional
Salmonella typhi [44] = experiment: Synergistic antibacterial activity against Salmonella typhi assessed as inhibition of bacterial growth incubated overnight in presence of ciprofloxacin by serial dilution based spectrophotometer; format: functional, Salmonella enterica subsp. enterica serovar Typhi; details: Salmonella enterica
Escherichia coli [45] = experiment: Synergistic antibacterial activity against Escherichia coli MTCC 443 assessed as fractional inhibitory concentration index incubated overnight in presence of ciprofloxacin by microdilution checkerboard assay; format: functional
Enterococcus faecalis [46] = experiment: Synergistic antibacterial activity against Enterococcus faecalis MTCC 439 assessed as fractional inhibitory concentration index incubated overnight in presence of ciprofloxacin by microdilution checkerboard assay; format: functional
Bacillus subtilis [47] = experiment: Synergistic antibacterial activity against Bacillus subtilis MTCC 736 assessed as fractional inhibitory concentration index incubated overnight in presence of ciprofloxacin by microdilution checkerboard assay; format: functional
Staphylococcus aureus [48] = experiment: Synergistic antibacterial activity against Staphylococcus aureus MTCC 902 assessed as fractional inhibitory concentration index incubated overnight in presence of ciprofloxacin by microdilution checkerboard assay; format: functional
Pseudomonas aeruginosa [49] = experiment: Synergistic antibacterial activity against Pseudomonas aeruginosa MTCC 2453 assessed as fractional inhibitory concentration index incubated overnight in presence of ciprofloxacin by microdilution checkerboard assay; format: functional
Salmonella typhi [50] = experiment: Synergistic antibacterial activity against Salmonella typhi assessed as fractional inhibitory concentration index incubated overnight in presence of ciprofloxacin by microdilution checkerboard assay; format: functional, Salmonella enterica subsp. enterica serovar Typhi
Escherichia coli [51] = experiment: Bacteriostatic activity against Escherichia coli MTCC 443 assessed as reduction in bacterial growth at 2 times MIC measured upto 24 hrs by absorbance based assay; format: functional, organism-based
Staphylococcus aureus [52] = experiment: Bacteriostatic activity against Staphylococcus aureus MTCC 902 assessed as reduction in bacterial growth at 2 times MIC measured upto 24 hrs by absorbance based assay; format: functional, organism-based
Enterococcus faecalis [53] = experiment: Antibacterial activity against Enterococcus faecalis MTCC 439 assessed as inhibition of bacterial growth at 200 ug/ml incubated overnight by spectrophotometry relative to control; format: functional
Bacillus subtilis [54] = experiment: Antibacterial activity against Bacillus subtilis MTCC 736 assessed as inhibition of bacterial growth at 200 ug/ml incubated overnight by spectrophotometry relative to control; format: functional
Pseudomonas aeruginosa [55] = experiment: Antibacterial activity against Pseudomonas aeruginosa MTCC 2453 assessed as inhibition of bacterial growth at 200 ug/ml incubated overnight by spectrophotometry relative to control; format: functional

CC(NC1=NC(c2cc3cc(OCc4cccc(Cl)c4)ccc3nc2O)N=CN1)c1ccccc1 (stereo not given)
MIC (Staphylococcus aureus [1]): 2 µg/mL (≈ 4.12 µM)

Fc1ccc(/C=N/CCNc2ccnc3cc(Cl)ccc23)cc1
zone of inhibition at 500 µg/mL (Escherichia coli [2]): 8 mm | zone of inhibition at 500 µg/mL (Enterococcus faecalis [3]): 10 mm | zone of inhibition at 500 µg/mL (Bacillus subtilis [4]): 10 mm | zone of inhibition at 500 µg/mL (Staphylococcus aureus [5]): 9 mm | zone of inhibition at 500 µg/mL (Pseudomonas aeruginosa [6]): 7 mm | zone of inhibition at 500 µg/mL (Salmonella typhi [7]): 11 mm | MIC (Escherichia coli [8]): 512 µg/mL (≈ 1560 µM) | MIC (Enterococcus faecalis [9]): 256 µg/mL (≈ 781 µM) | MIC (Bacillus subtilis [10]): 256 µg/mL (≈ 781 µM) | MIC (Staphylococcus aureus [11]): 256 µg/mL (≈ 781 µM) | MIC (Pseudomonas aeruginosa [12]): 512 µg/mL (≈ 1560 µM) | MIC (Salmonella typhi [13]): 128 µg/mL (≈ 390 µM) | MBC (Escherichia coli [14]): 512 µg/mL (≈ 1560 µM) | MBC (Enterococcus faecalis [15]): > 512 µg/mL | MBC (Bacillus subtilis [16]): 256 µg/mL (≈ 781 µM) | MBC (Staphylococcus aureus [17]): > 512 µg/mL | MBC (Pseudomonas aeruginosa [18]): 512 µg/mL (≈ 1560 µM) | MBC (Salmonella typhi [19]): 128 µg/mL (≈ 390 µM) | Ratio (Escherichia coli [20]): 1 | Ratio (Bacillus subtilis [21]): 1 | Ratio (Pseudomonas aeruginosa [22]): 1 | Ratio (Salmonella typhi [23]): 1 | diameter of the inhibition zone (DIZ) (Enterococcus faecalis [24]): 7 mm | diameter of the inhibition zone (DIZ) (Bacillus subtilis [25]): 9 mm | diameter of the inhibition zone (DIZ) (Salmonella typhi [26]): 10 mm | diameter of the inhibition zone (DIZ) (Escherichia coli [27]): 10 mm | diameter of the inhibition zone (DIZ) (Enterococcus faecalis [28]): 7 mm | diameter of the inhibition zone (DIZ) (Bacillus subtilis [29]): 9 mm | diameter of the inhibition zone (DIZ) (Staphylococcus aureus [30]): 8 mm | diameter of the inhibition zone (DIZ) (Pseudomonas aeruginosa [31]): 8 mm | diameter of the inhibition zone (DIZ) (Salmonella typhi [32]): 10 mm | diameter of the inhibition zone (DIZ) (Escherichia coli [33]): 13 mm | diameter of the inhibition zone (DIZ) (Enterococcus faecalis [34]): 7 mm | diameter of the inhibition zone (DIZ) (Bacillus subtilis [35]): 13 mm | diameter of the inhibition zone (DIZ) (Staphylococcus aureus [36]): 10 mm | diameter of the inhibition zone (DIZ) (Pseudomonas aeruginosa [37]): 9 mm | diameter of the inhibition zone (DIZ) (Salmonella typhi [38]): 11 mm | MIC (Escherichia coli [39]): 64 µg/mL | MIC (Enterococcus faecalis [40]): 128 µg/mL | MIC (Bacillus subtilis [41]): 256 µg/mL | MIC (Staphylococcus aureus [42]): 32 µg/mL | MIC (Pseudomonas aeruginosa [43]): 256 µg/mL | MIC (Salmonella typhi [44]): 16 µg/mL | fractional inhibitory concentration index (FICI) (Escherichia coli [45]): 0.37 | fractional inhibitory concentration index (FICI) (Enterococcus faecalis [46]): 1.5 | fractional inhibitory concentration index (FICI) (Bacillus subtilis [47]): 2 | fractional inhibitory concentration index (FICI) (Staphylococcus aureus [48]): 1.12 | fractional inhibitory concentration index (FICI) (Pseudomonas aeruginosa [49]): 1.5 | fractional inhibitory concentration index (FICI) (Salmonella typhi [50]): 0.187 | Activity (Escherichia coli [51]): Active | Activity (Staphylococcus aureus [52]): Active | inhibition at 200 µg/mL (Enterococcus faecalis [53]): 100% | inhibition at 200 µg/mL (Bacillus subtilis [54]): 100% | inhibition at 200 µg/mL (Pseudomonas aeruginosa [55]): 100%
